For six molecules, GI50 and TGI results are on record in PubChem BioAssay (NCI).

Some test systems named below: ACHN renal; K-562 leukemia; MOLT-4 leukemia; NCI-H226 lung; OVCAR-3 ovarian; OVCAR-5 ovarian; SF-268 CNS; SR leukemia; T-47D breast; U251 CNS.
Holding throughout (assay): growth of human tumour cells (NCI), 48 h

Each structure is given as a SMILES string.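 Exposure lasted 48 hours, with cells grown in 96-well plates and compounds tested at five concentrations. At the GI50, growth is halved. The concentration for full growth arrest is given as TGI.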

Regarding `O=C(c1ccccc1Nc1ccnc(C(F)(F)F)c1)N1CCN(c2cccc(Cl)c2)CC1`, the GI50 is 22.9 µM in the assay with ACHN renal; 19.2 µM in the assay on K-562 leukemia; 11.9 µM in the assay on MOLT-4 leukemia; 15 µM with NCI-H226 lung; 19 µM with OVCAR-3 ovarian; 27.9 µM in the assay with OVCAR-5 ovarian. Besides, the GI50 was 29.3 µM with SF-268 CNS, 13.5 µM in the assay with SR leukemia, 10.7 µM with T-47D breast and 24.5 µM in the assay with U251 CNS. Also, the TGI is 86.1 µM in the assay on ACHN renal; over 100 µM in the assay on K-562 leukemia; 44.5 µM with MOLT-4 leukemia; 49.2 µM in the assay on NCI-H226 lung; over 80.9 µM with OVCAR-3 ovarian; over 86.4 µM with OVCAR-5 ovarian. Also, the TGI with SF-268 CNS was over 100 µM; in the assay with SR leukemia, over 58.7 µM; in the assay with T-47D breast, 74.4 µM; with U251 CNS it was 99.4 µM.

In the case of `Cc1ccc(Cl)cc1Nc1nc(C(F)(F)F)ccc1C(=O)Nc1cccc(C(F)(F)F)c1`, the GI50 in the assay with ACHN renal is 2.95 µM; with K-562 leukemia it was 3.59 µM; in the assay on MOLT-4 leukemia, 2.77 µM; in the assay on NCI-H226 lung it was 6 µM; in the assay on OVCAR-3 ovarian it was 4.18 µM; in the assay with OVCAR-5 ovarian, 2.59 µM. Besides, the GI50 is 3.59 µM in the assay with SF-268 CNS, 3.41 µM in the assay with SR leukemia, 2.23 µM in the assay on T-47D breast and 3.68 µM with U251 CNS. Further, the TGI in the assay on ACHN renal was 12.8 µM; with K-562 leukemia it was over 100 µM; with MOLT-4 leukemia, 10 µM; in the assay on NCI-H226 lung, 25.5 µM; in the assay on OVCAR-3 ovarian, 20.1 µM; in the assay on OVCAR-5 ovarian it was 11.4 µM. For the same molecule, the TGI in the assay on SF-268 CNS amounted to 13.8 µM; with SR leukemia, 30.3 µM; in the assay with T-47D breast it was 8.95 µM; in the assay on U251 CNS it was 14.5 µM.

For the molecule `O=C1NC(=O)/C(=C/C=C/c2ccccc2)S1`, the GI50 in the assay with ACHN renal is 0.655 µM; with K-562 leukemia, 3.27 µM; in the assay on MOLT-4 leukemia, 2.08 µM; in the assay on NCI-H226 lung, 14 µM; in the assay with OVCAR-3 ovarian it was 2.88 µM; in the assay on OVCAR-5 ovarian, 14.1 µM. Also, the GI50 was 2.96 µM with SF-268 CNS, 0.597 µM with SR leukemia, 12.8 µM with T-47D breast and 0.693 µM in the assay on U251 CNS. Moreover, the TGI is over 37 µM in the assay on ACHN renal; over 100 µM in the assay on K-562 leukemia; over 72 µM in the assay on MOLT-4 leukemia; over 80.8 µM in the assay with NCI-H226 lung; 33.1 µM in the assay with OVCAR-3 ovarian; over 100 µM in the assay on OVCAR-5 ovarian. In addition, the TGI in the assay with SF-268 CNS is over 70.2 µM; in the assay with SR leukemia, over 86.5 µM; in the assay on T-47D breast, over 100 µM; with U251 CNS, 18.1 µM.

Take `CC(=O)Oc1ccc(OC(C)=O)c2ccccc12`: the GI50 in the assay with ACHN renal was 6.37 µM; in the assay with K-562 leukemia, 3.39 µM; in the assay on MOLT-4 leukemia it was 2.46 µM; in the assay with NCI-H226 lung, 14.4 µM; in the assay with OVCAR-3 ovarian it was 3.55 µM; with OVCAR-5 ovarian it was 17.5 µM. Moreover, the GI50 with SF-268 CNS is 10.5 µM; in the assay with SR leukemia, 3.19 µM; in the assay on T-47D breast, 1.21 µM; with U251 CNS, 13.8 µM. The TGI worked out at 19.2 µM in the assay on ACHN renal; 22 µM in the assay on K-562 leukemia; 8.38 µM with MOLT-4 leukemia; 31.3 µM with NCI-H226 lung; 12.9 µM in the assay with OVCAR-3 ovarian; 31.7 µM in the assay with OVCAR-5 ovarian. In addition, the TGI was 22.3 µM in the assay on SF-268 CNS, 11.7 µM with SR leukemia, 3.16 µM with T-47D breast and 27.2 µM in the assay on U251 CNS.

Regarding `O=C(O)c1c(O)c2cc(Br)ccc2oc1=O`, the TGI in the assay with ACHN renal, in the assay on K-562 leukemia, with MOLT-4 leukemia, with NCI-H226 lung, in the assay with OVCAR-3 ovarian and with OVCAR-5 ovarian was over 100 µM throughout. Moreover, the TGI in the assay on SF-268 CNS, in the assay on SR leukemia, in the assay with T-47D breast and in the assay on U251 CNS was over 100 µM each time.

As for `Cl.[Pt].[c-]1ccccc1-c1ccccn1.c1ccc(P(c2ccccc2)C([PH+](c2ccccc2)c2ccccc2)[PH+](c2ccccc2)c2ccccc2)cc1`, the GI50 is 1.84 µM in the assay with ACHN renal; 0.658 µM in the assay on K-562 leukemia; 2.13 µM in the assay on MOLT-4 leukemia; 1.88 µM in the assay on NCI-H226 lung; 1.59 µM with OVCAR-3 ovarian; 2.9 µM in the assay on OVCAR-5 ovarian. Moreover, the GI50 in the assay with SF-268 CNS was 2.59 µM; in the assay with SR leukemia, 1.21 µM; in the assay with T-47D breast, 0.916 µM; with U251 CNS, 0.577 µM. Further, the TGI in the assay on ACHN renal turned out to be 11.5 µM; in the assay on K-562 leukemia it was 13.6 µM; in the assay on MOLT-4 leukemia, 11.6 µM; in the assay on NCI-H226 lung it was 9.81 µM; in the assay with OVCAR-3 ovarian, 7.99 µM; with OVCAR-5 ovarian, 23.9 µM. Besides, the TGI came out at 20.9 µM with SF-268 CNS, 28.6 µM with SR leukemia, 19.5 µM in the assay on T-47D breast and 2.69 µM in the assay on U251 CNS.
